Measured values published in patent publication US20080096894A1, “Anti-Bacterial Compounds” (ASTON UNIVERSITY, priority 2005, published 2008).
Converted amounts (≈) assume the structure as drawn. Where two headings read alike, the source gives them in different places.

Experiments:
[1] = system: C. difficile (NCTC 11204 and thirty-two clinical isolates); experiment: Minimum Bactericidal Concentration (MBC) against C. difficile, 99.9% kill; type: cell-based, Clostridium difficile; conditions: Clostridioides difficile, read-out: MBC
Method: (§1) Compounds 4PYcq and 4PYOfi were screened against one NCTC strain and thirty-two clinical isolates of Clostridium difficile as described below.
(§2) The antimicrobial compounds were prepared by adding 5.12 mg of each compound to 1 ml of DMSO. From each solution 100 μl was then aseptically transferred into 1 ml of sterile distilled water to give a concentration of 512 μg/ml. 100 μl of each diluted compound was then added to the first well of a sterile 96-well microliter plate. Serial dilutions were performed to give a concentration range spanning from 0 to 512 μg/ml of each compound. The microtiter plate containing the antimicrobials was left to equilibrate in an anaerobic cabinet for 3 hours before the addition of C. difficile cells. An overnight culture of C. difficile (NCTC 11204) was standardized to an OD^600 of 0.04 (approximately 10^6 CFU/ml), using Wilkins Chalgren broth and was vortexed for 60 seconds to ensure there was a uniform suspension. 100 μl of standardized culture was then added to each well of the microtiter plate, containing the equilibrated antimicrobials. The final concentrations of the antimicrobials in the wells therefore ranged from […] and the concentration of the culture was 10^5 CFU/ml in each well. The microtiter plate was incubated at 37° C., for 48 hours under anaerobic conditions. The MIC was determined as the lowest concentration of antimicrobial agent inhibiting the total growth of C. difficile cells. After incubation, the total solution from each well was aseptically spread onto a separate Wilkins chalgren agar plate. Plates were incubated for 48 hours, at 37° C., under anaerobic conditions. The number of colonies on each plate was counted after incubation and the MBC was determined as the lowest concentration of the antimicrobial agent at which 99.9% of organisms in the original inoculum were killed.

[2] = system: Propionibacterium acnes; experiment: MIC against Propionibacterium acnes, microtitre double dilution in BHI; type: cell-based; conditions: Cutibacterium acnes, read-out: MIC
Method: Compounds 4PYcq and 4PYOfi were screened against one NCTC stain and seven clinical isolates of Propionibacterium acnes as described below.
Bacterial strains of Propionibacterium acnes, stored on beads at −20° C., were plated onto Brain heart infusion (BHI) agar plates. The cultures were incubated anaerobically for 4 days at 37° C.
Bacterial suspensions were prepared by diluting bacterial suspensions with BHI to obtain bacterial concentrations approximately 2×10^6 cfu/ml.
The test antimicrobial compounds were prepared by diluting the compound with appropriate nutrient broth to obtain correct stock solution. 50 μl of BHI were aliquoted onto the wells of the round-bottomed microtitre plate. 50 μl of the antimicrobial compounds were added onto the wells in the first column of the plate and several serial double dilutions were performed along the wells on each row. Following the series of double dilutions of the test compound the bacterial suspension were added onto each well except on the last column which served as a negative control. The lowest concentration of the test compound which inhibited bacterial growth was regarded as MIC of the compound.

[3] = system: C. difficile (NCTC 11204 and thirty-two clinical isolates); experiment: Minimum Inhibitory Concentration (MIC) against C. difficile, microtiter plate, anaerobic, 48 hours; type: cell-based, Clostridium difficile; conditions: Clostridioides difficile, read-out: MIC
Method: as §1, §2

[4] = system: S. epidemisis; experiment: MIC, agar dilution, multipoint inoculator; type: cell-based, Staphylococcus epidermidis; conditions: Staphylococcus epidermidis, upper value of MIC reading, read-out: MIC
Summary of the method: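 Agar dilution on Mueller Hinton agar; a multipoint inoculator delivered 10^4 colony forming units per spot, and the MIC was taken for each compound.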

[5] = system: Acinetobater spp.; experiment: activity against Acinetobacter spp.; type: cell-based; conditions: Gram-negative bacterium
[6] = Clostridium difficile Isolate 1
[7] = Clostridium difficile Isolate 2
[8] = Clostridium difficile Isolate 3
[9] = Clostridium difficile Isolate 4
[10] = Clostridium difficile Isolate 5
[11] = Clostridium difficile Isolate 6
[12] = Clostridium difficile Isolate 7
[13] = Clostridium difficile Isolate 8
[14] = Clostridium difficile Isolate 9
[15] = Clostridium difficile Isolate 10
[16] = Clostridium difficile Isolate 11
[17] = Clostridium difficile Isolate 12
[18] = Clostridium difficile Isolate 13
[19] = Clostridium difficile Isolate 14
[20] = Clostridium difficile Isolate 15
[21] = Clostridium difficile Isolate 16
[22] = Clostridium difficile Isolate 17
[23] = Clostridium difficile Isolate 18
[24] = Clostridium difficile Isolate 19
[25] = Clostridium difficile Isolate 20
[26] = Clostridium difficile Isolate 21
[27] = Clostridium difficile Isolate 22
[28] = Clostridium difficile Isolate 23
[29] = Clostridium difficile Isolate 24
[30] = Clostridium difficile Isolate 25
[31] = Clostridium difficile Isolate 26
[32] = Clostridium difficile Isolate 27
[33] = Clostridium difficile Isolate 28
[34] = Clostridium difficile Isolate 29
[35] = Clostridium difficile Isolate 30
[36] = Clostridium difficile Isolate 31
[37] = Clostridium difficile Isolate 32
[38] = Clostridium difficile NCTC 11204

## CC(C)(C)c1cc(/C=N/N=C(\N)c2ccncc2)c(O)c(C(C)(C)C)c1 [Compound 4PYcq]
[1]; [6]
  MBC: 4 to 8 µg/mL (≈ 11.3 to 22.7 µM)
[1]; [7]
  MBC: 4 to 8 µg/mL (≈ 11.3 to 22.7 µM)
[1]; [8]
  MBC: 2 to 4 µg/mL (≈ 5.67 to 11.3 µM)
[1]; [9]
  MBC: 2 to 4 µg/mL (≈ 5.67 to 11.3 µM)
[1]; [10]
  MBC: 2 to 4 µg/mL (≈ 5.67 to 11.3 µM)
[1]; [11]
  MBC: 2 to 4 µg/mL (≈ 5.67 to 11.3 µM)
[1]; [12]
  MBC: 4 to 8 µg/mL (≈ 11.3 to 22.7 µM)
[1]; [13]
  MBC: 4 to 8 µg/mL (≈ 11.3 to 22.7 µM)
[1]; [14]
  MBC: 4 to 8 µg/mL (≈ 11.3 to 22.7 µM)
[1]; [15]
  MBC: 4 to 8 µg/mL (≈ 11.3 to 22.7 µM)
[1]; [16]
  MBC: 2 to 4 µg/mL (≈ 5.67 to 11.3 µM)
[1]; [17]
  MBC: 4 to 8 µg/mL (≈ 11.3 to 22.7 µM)
[1]; [18]
  MBC: 4 to 8 µg/mL (≈ 11.3 to 22.7 µM)
[1]; [19]
  MBC: 4 to 8 µg/mL (≈ 11.3 to 22.7 µM)
[1]; [20]
  MBC: 4 to 8 µg/mL (≈ 11.3 to 22.7 µM)
[1]; [21]
  MBC: 4 to 8 µg/mL (≈ 11.3 to 22.7 µM)
[1]; [22]
  MBC: 4 to 8 µg/mL (≈ 11.3 to 22.7 µM)
[1]; [23]
  MBC: 2 to 4 µg/mL (≈ 5.67 to 11.3 µM)
[1]; [24]
  MBC: 4 to 8 µg/mL (≈ 11.3 to 22.7 µM)
[1]; [25]
  MBC: 2 to 4 µg/mL (≈ 5.67 to 11.3 µM)
[1]; [26]
  MBC: 4 to 8 µg/mL (≈ 11.3 to 22.7 µM)
[1]; [27]
  MBC: 2 to 4 µg/mL (≈ 5.67 to 11.3 µM)
[1]; [28]
  MBC: 2 to 4 µg/mL (≈ 5.67 to 11.3 µM)
[1]; [29]
  MBC: 4 to 8 µg/mL (≈ 11.3 to 22.7 µM)
[1]; [30]
  MBC: 4 to 8 µg/mL (≈ 11.3 to 22.7 µM)
[1]; [31]
  MBC: 8 to 16 µg/mL (≈ 22.7 to 45.4 µM)
[1]; [32]
  MBC: 4 to 8 µg/mL (≈ 11.3 to 22.7 µM)
[1]; [33]
  MBC: 4 to 8 µg/mL (≈ 11.3 to 22.7 µM)
[1]; [34]
  MBC: 4 to 8 µg/mL (≈ 11.3 to 22.7 µM)
[1]; [35]
  MBC: 2 to 4 µg/mL (≈ 5.67 to 11.3 µM)
[1]; [36]
  MBC: 4 to 8 µg/mL (≈ 11.3 to 22.7 µM)
[1]; [37]
  MBC: 8 to 16 µg/mL (≈ 22.7 to 45.4 µM)
[1]; [38]
  MBC: 4 to 8 µg/mL (≈ 11.3 to 22.7 µM)
[2]; NCTC737, P. acnes NCTC 737
  MIC: 64 to 128 µg/mL (≈ 182 to 363 µM)
[2]; P. acnes Isolate 1
  MIC: 4 to 8 µg/mL (≈ 11.3 to 22.7 µM)
[2]; P. acnes Isolate 2
  MIC: 32 to 64 µg/mL (≈ 90.8 to 182 µM)
[2]; P. acnes Isolate 3
  MIC: 2 to 4 µg/mL (≈ 5.67 to 11.3 µM)
[2]; P. acnes Isolate 4
  MIC: 128 to 256 µg/mL (≈ 363 to 726 µM)
[2]; P. acnes Isolate 5
  MIC: 64 to 128 µg/mL (≈ 182 to 363 µM)
[2]; P. acnes Isolate 6
  MIC: 64 to 128 µg/mL (≈ 182 to 363 µM)
[2]; P. acnes Isolate 7
  MIC: > 256 µg/mL
[3]; [6]
  MIC: 4 to 8 µg/mL (≈ 11.3 to 22.7 µM)
[3]; [7]
  MIC: 2 to 4 µg/mL (≈ 5.67 to 11.3 µM)
[3]; [8]
  MIC: 2 to 4 µg/mL (≈ 5.67 to 11.3 µM)
[3]; [9]
  MIC: 2 to 4 µg/mL (≈ 5.67 to 11.3 µM)
[3]; [10]
  MIC: 2 to 4 µg/mL (≈ 5.67 to 11.3 µM)
[3]; [11]
  MIC: 2 to 4 µg/mL (≈ 5.67 to 11.3 µM)
[3]; [12]
  MIC: 4 to 8 µg/mL (≈ 11.3 to 22.7 µM)
[3]; [13]
  MIC: 4 to 8 µg/mL (≈ 11.3 to 22.7 µM)
[3]; [14]
  MIC: 4 to 8 µg/mL (≈ 11.3 to 22.7 µM)
[3]; [15]
  MIC: 2 to 4 µg/mL (≈ 5.67 to 11.3 µM)
[3]; [16]
  MIC: 2 to 4 µg/mL (≈ 5.67 to 11.3 µM)
[3]; [17]
  MIC: 4 to 8 µg/mL (≈ 11.3 to 22.7 µM)
[3]; [18]
  MIC: 4 to 8 µg/mL (≈ 11.3 to 22.7 µM)
[3]; [19]
  MIC: 4 to 8 µg/mL (≈ 11.3 to 22.7 µM)
[3]; [20]
  MIC: 4 to 8 µg/mL (≈ 11.3 to 22.7 µM)
[3]; [21]
  MIC: 4 to 8 µg/mL (≈ 11.3 to 22.7 µM)
[3]; [22]
  MIC: 2 to 4 µg/mL (≈ 5.67 to 11.3 µM)
[3]; [23]
  MIC: 2 to 4 µg/mL (≈ 5.67 to 11.3 µM)
[3]; [24]
  MIC: 4 to 8 µg/mL (≈ 11.3 to 22.7 µM)
[3]; [25]
  MIC: 2 to 4 µg/mL (≈ 5.67 to 11.3 µM)
[3]; [26]
  MIC: 4 to 8 µg/mL (≈ 11.3 to 22.7 µM)
[3]; [27]
  MIC: 2 to 4 µg/mL (≈ 5.67 to 11.3 µM)
[3]; [28]
  MIC: 2 to 4 µg/mL (≈ 5.67 to 11.3 µM)
[3]; [29]
  MIC: 4 to 8 µg/mL (≈ 11.3 to 22.7 µM)
[3]; [30]
  MIC: 4 to 8 µg/mL (≈ 11.3 to 22.7 µM)
[3]; [31]
  MIC: 4 to 8 µg/mL (≈ 11.3 to 22.7 µM)
[3]; [32]
  MIC: 4 to 8 µg/mL (≈ 11.3 to 22.7 µM)
[3]; [33]
  MIC: 4 to 8 µg/mL (≈ 11.3 to 22.7 µM)
[3]; [34]
  MIC: 4 to 8 µg/mL (≈ 11.3 to 22.7 µM)
[3]; [35]
  MIC: 2 to 4 µg/mL (≈ 5.67 to 11.3 µM)
[3]; [36]
  MIC: 4 to 8 µg/mL (≈ 11.3 to 22.7 µM)
[3]; [37]
  MIC: 4 to 8 µg/mL (≈ 11.3 to 22.7 µM)
[3]; [38]
  MIC: 4 to 8 µg/mL (≈ 11.3 to 22.7 µM)
[4]; 18 h, S. epidemisis Isolate 1
  MIC: 4 µg/mL (≈ 11.3 µM)
[4]; NCTC11047, 18 h, S. epidemisis NCTC 11047
  MIC: 4 µg/mL (≈ 11.3 µM)
[5]
  activity against Acinetobater spp. (in words): inactive
